In general, pIC50 refers to −log10 of the IC50, conventionally taken in molar units.

pIC50: −log10 of the molar value. Calls of active or inactive are those of the source. The calls are words filed in the database; no cut-off is given here.

Assay [1] has as its system HL-60. The assay can be described thus: The compound was tested in vitro for its cytotoxicity against human HL-60 cancer cell line by MTT method at 1 uM concentration; Slight inhibition. It counts as functional, cell-based. In general terms: Formazan colour is commonly taken as a measure of viable cells.
The subject of assay [2] is P388. The assay can be described thus: The compound was tested in vitro for its cytotoxicity against […] P-388 cancer cell line by MTT method at 1 uM concentration; No inhibition. The format is functional, cell-based. To be noted: Mus musculus.
The test system of assay [3] is A549. The assay can be described thus: The compound was tested in vitro for its cytotoxicity against human A-549 cancer cell line by MTT method at 1 uM concentration; No inhibition. The format is functional, cell-based.
Assay [4] concerns A549. The assay can be described thus: The compound was tested in vitro for its cytotoxicity against human A-549 cancer cell line by MTT method at 1 uM concentration; Slight inhibition. The format is functional, cell-based.
The test system of assay [5] is P388. The assay can be described thus: The compound was tested in vitro for its cytotoxicity against […] P-388 cancer cell line by MTT method at 1 uM concentration; Slight inhibition. The format is functional, cell-based. To be noted: Mus musculus.
Assay [6] deals with A549. The assay is described as follows: Tested in vitro for inhibitory effect on the growth of human A-549 cancer cell line. The format is functional, cell-based.
For assay [7], the system named is Bel-7402. The assay is described as follows: Tested in vitro for inhibitory effect on the growth of BEL -7402 cell line. The format is functional, cell-based. Conditions: Homo sapiens.
Assay [8] deals with K562. The assay is described as follows: Tested in vitro for inhibitory effect on the growth of K-562 cell line. It counts as functional, cell-based. Conditions: Homo sapiens.
Assay [9] deals with MCF7. The assay can be described thus: Tested in vitro for inhibitory effect on the growth of MCF-7 cell line. The format is functional, cell-based. Conditions: Homo sapiens.
Assay [10] deals with SGC-7901. The assay can be described thus: Tested in vitro for inhibitory effect on the growth of human gastric carcinoma SGC-7901 cell line. It counts as functional, cell-based.
The subject of assay [11] is WI-38. The assay can be described thus: Tested in vitro for inhibitory effect on the growth of WI-38 cell line; No cytotoxicity. The format is functional, cell-based, Homo sapiens.
The subject of assay [12] is HL-60. The assay can be described thus: The compound was tested in vitro for its cytotoxicity against human HL-60 cancer cell line by MTT method at 1 uM concentration; Total inhibition. It counts as functional, cell-based.
Assay [13] relates to P388. The assay can be described thus: The compound was tested in vitro for its cytotoxicity against […] P-388 cancer cell line by MTT method at 1 uM concentration; Total inhibition. The format is functional, cell-based.
The test system of assay [14] is HL-60. The assay is described as follows: The compound was tested in vitro for its cytotoxicity against human HL-60 cancer cell line by MTT method at 1 uM concentration; No inhibition. The format is functional, cell-based.
The subject of assay [15] is A549. The assay can be described thus: The compound was tested in vitro for its cytotoxicity against human A-549 cancer cell line by MTT method at 1 uM concentration; Significant inhibition. It counts as functional, cell-based.
Assay [16] has as its system HL-60. The assay is described as follows: The compound was tested in vitro for its cytotoxicity against human HL-60 cancer cell line by MTT method at 1 uM concentration; Significant inhibition. It counts as functional, cell-based.
The target in assay [17] is Telomerase reverse transcriptase (Homo sapiens, UniProt O14746). The assay is described as follows: Tested for 50% inhibition against Telomerase.
Telomerase reverse transcriptase, sequence (O14746 whole entry): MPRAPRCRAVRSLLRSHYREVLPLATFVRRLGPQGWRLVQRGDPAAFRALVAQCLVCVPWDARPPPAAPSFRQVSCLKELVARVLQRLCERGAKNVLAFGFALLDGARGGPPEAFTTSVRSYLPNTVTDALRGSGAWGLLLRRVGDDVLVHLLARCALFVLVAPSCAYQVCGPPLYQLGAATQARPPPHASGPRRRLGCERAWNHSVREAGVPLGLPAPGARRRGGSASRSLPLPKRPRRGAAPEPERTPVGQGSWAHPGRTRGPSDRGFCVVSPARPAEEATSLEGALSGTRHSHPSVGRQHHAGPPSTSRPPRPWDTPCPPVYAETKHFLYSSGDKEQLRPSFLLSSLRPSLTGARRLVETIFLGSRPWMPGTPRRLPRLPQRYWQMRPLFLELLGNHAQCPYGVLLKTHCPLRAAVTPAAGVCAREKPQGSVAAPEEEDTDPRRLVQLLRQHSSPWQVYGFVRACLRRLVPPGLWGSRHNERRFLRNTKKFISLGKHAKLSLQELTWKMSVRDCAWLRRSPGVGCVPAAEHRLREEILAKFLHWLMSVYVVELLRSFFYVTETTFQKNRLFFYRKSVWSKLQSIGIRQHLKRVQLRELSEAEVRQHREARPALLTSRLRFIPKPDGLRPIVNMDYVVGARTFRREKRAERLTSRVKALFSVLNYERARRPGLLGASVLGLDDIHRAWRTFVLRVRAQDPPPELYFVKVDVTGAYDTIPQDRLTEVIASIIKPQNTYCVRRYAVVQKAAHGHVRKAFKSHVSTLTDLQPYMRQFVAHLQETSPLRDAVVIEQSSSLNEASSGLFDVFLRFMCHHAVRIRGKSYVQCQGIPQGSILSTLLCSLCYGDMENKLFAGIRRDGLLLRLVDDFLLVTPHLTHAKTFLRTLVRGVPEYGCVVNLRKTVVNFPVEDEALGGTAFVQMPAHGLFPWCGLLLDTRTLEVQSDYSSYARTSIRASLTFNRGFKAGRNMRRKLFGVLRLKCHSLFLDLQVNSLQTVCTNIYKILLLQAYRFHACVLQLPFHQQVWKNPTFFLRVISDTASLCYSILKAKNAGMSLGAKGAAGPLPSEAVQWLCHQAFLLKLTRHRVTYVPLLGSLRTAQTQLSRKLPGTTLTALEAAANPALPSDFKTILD
Assay [18] has as its target T1, DNA polymerase I, thermostable (Thermus aquaticus, UniProt P19821). The assay is described as follows: Tested for 50% inhibition against Taq DNA polymerase at the concentration of 10 uM; No inhibition.
The target in assay [19] is T1, DNA polymerase I, thermostable. The assay is described as follows: Tested for 50% inhibition against Taq DNA polymerase at the concentration of 20 uM; No inhibition.
Assay [20] shares this target. The assay can be described thus: Tested for 50% inhibition against Taq DNA polymerase at the concentration of 50 uM; No inhibition.

T1 sequence (P19821 whole entry): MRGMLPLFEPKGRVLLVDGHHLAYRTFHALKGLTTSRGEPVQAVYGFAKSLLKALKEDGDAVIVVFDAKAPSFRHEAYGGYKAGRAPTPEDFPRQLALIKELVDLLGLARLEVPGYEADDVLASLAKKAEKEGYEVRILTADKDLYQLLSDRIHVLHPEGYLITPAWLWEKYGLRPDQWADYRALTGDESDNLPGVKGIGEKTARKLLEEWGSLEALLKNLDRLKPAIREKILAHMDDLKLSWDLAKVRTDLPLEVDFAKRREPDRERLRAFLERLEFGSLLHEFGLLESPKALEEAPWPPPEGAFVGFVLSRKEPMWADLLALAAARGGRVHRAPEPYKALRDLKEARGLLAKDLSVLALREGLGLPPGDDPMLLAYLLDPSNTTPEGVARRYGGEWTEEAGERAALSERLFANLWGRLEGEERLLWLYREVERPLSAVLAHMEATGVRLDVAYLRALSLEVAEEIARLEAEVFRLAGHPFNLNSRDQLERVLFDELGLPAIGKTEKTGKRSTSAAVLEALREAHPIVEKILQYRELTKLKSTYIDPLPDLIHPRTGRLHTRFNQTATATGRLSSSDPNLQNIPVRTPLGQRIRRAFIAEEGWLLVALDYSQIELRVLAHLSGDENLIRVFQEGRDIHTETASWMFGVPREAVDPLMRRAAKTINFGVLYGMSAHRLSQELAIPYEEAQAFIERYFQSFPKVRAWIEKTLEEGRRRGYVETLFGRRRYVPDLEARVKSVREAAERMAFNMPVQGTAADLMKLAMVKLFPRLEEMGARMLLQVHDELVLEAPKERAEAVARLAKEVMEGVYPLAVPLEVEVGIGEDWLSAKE

In the case of `CC(C)=CCC(OC(=O)COc1ccc2ccccc2c1)C1=CC(=O)c2c(O)ccc(O)c2C1=O` (centres undefined), the Activity result in assay [1] was “Slight inhibition”. The outcome in [2] and in assay [3] was inactive.
As for `CC(C)=CCC(O)C1=CC(=O)c2c(O)ccc(O)c2C1=O` (centres undefined), the Activity result in [4], in assay [1] and in assay [5] was “Slight inhibition” each time.
Take `CC(C)=CC[C@H](O)C1=CC(=O)c2c(O)ccc(O)c2C1=O`: the Activity entry in assay [4], in [1] and in assay [5] was “Slight inhibition” in each case.
Take `CC(C)=CCC(OC(=O)c1ccc2ccccc2c1)C1=CC(=O)c2c(O)ccc(O)c2C1=O` (centres undefined): the pIC50 in [6] was 3.41; in assay [7] it was 4.17; in assay [8], 4.51; in [9] it was 4.03; in [10], 4.31. Further, in [1], the Activity result was “Slight inhibition”. Moreover, the result in assay [2] and in assay [3] was inactive. Moreover, in assay [11], the IC50 entry is on record as “No cytotoxicity”.
Take `CCCCCCCCCCCC(=O)OC(CC=C(C)C)C1=CC(=O)c2c(O)ccc(O)c2C1=O` (centres undefined): the Activity result in [4] and in assay [1] was “Slight inhibition” each time. Besides, the outcome in assay [2] was inactive.
Consider `CC(C)=CCC(OC(=O)COCc1ccccc1)C1=CC(=O)c2c(O)ccc(O)c2C1=O` (centres undefined), for which the result in [2] and in assay [3] was inactive.
As to `CC1(C)CC[C@@H](C2=CC(=O)c3c(O)ccc(O)c3C2=O)O1`, the Activity entry in [12] and in assay [13] was “Total inhibition” each time. Further, the outcome in [3] was inactive.
As for `CC(C)=CCC(OC(=O)c1cccnc1)C1=CC(=O)c2c(O)ccc(O)c2C1=O` (centres undefined), in [1], the Activity result is reported as “Slight inhibition”. The result in [2] and in [3] was inactive.
For `CC(C)=CCC(OC(=O)c1ccccc1)C1=CC(=O)c2c(O)ccc(O)c2C1=O` (centres undefined), the outcome in assay [14], in [2] and in assay [3] was inactive.
Take `CC(C)=CCC(OC(=O)CCCCC(C)C)C1=CC(=O)c2c(O)ccc(O)c2C1=O` (centres undefined): the Activity result in assay [15] and in [1] was “Significant inhibition” throughout. For the same compound, the pIC50 was 7.80 in assay [6]; 9.77 in assay [7]; 4.74 in assay [8]; 3.60 in assay [9]; 9.00 in [10]. Also, the result in [2] was inactive. In addition, the IC50 result in assay [11] was “No cytotoxicity”.
Turning to `CC(=O)O[C@H](CC=C(C)C)C1=CC(=O)c2c(O)ccc(O)c2C1=O` [ACETYLSHIKONIN], the Activity entry in assay [15], in assay [16] and in [5] was “Significant inhibition” each time. Moreover, the pIC50 was 4.41 in assay [6]; 7.17 in assay [7]; 4.54 in [8]; 4.51 in [9]; 6.54 in [10]; 4.43 in [17]. Further, the IC50 entry in assay [18] was “Not Active”; in assay [19] it was “Not Active”; in [20] it was “Not Active”; in assay [11], “No cytotoxicity”.
Consider `CC(C)=CCC(OC(=O)c1cccc2ccccc12)C1=CC(=O)c2c(O)ccc(O)c2C1=O` (centres undefined), for which the Activity result in [1] was “Slight inhibition”. For the same compound, the result in assay [2] and in [3] was inactive.
Consider `CC1(C)CC[C@H](C2=CC(=O)c3c(O)ccc(O)c3C2=O)O1`, for which the Activity entry in [12] and in assay [13] was “Total inhibition” throughout. The result in assay [3] was inactive.
With `CC(C)=CC[C@@H](O)C1=CC(=O)c2c(O)ccc(O)c2C1=O`, the Activity entry in [4], in [1] and in assay [5] was “Slight inhibition” each time.
Turning to `CC(C)=CCC(OC(=O)Cc1c[nH]c2ccccc12)C1=CC(=O)c2c(O)ccc(O)c2C1=O` (centres undefined), the Activity entry in assay [1] is recorded as “Slight inhibition”. For the same compound, the result in assay [2] and in assay [3] was inactive.
As for `CCCC(=O)OC(CC=C(C)C)C1=CC(=O)c2c(O)ccc(O)c2C1=O` (centres undefined), the Activity result in assay [1] was “Slight inhibition”. Moreover, the result in [2] and in assay [3] was inactive.
